Test results: patent US4826854A, “Certain cycloalka-(b)-pyrazolo(3,4-d)-pyridin-3-one derivatives” (Ciba-Geigy Corporation, priority 1987, dated 1989)

Legend:
benzodiazepine receptor = benzodiazepine receptor binding and agonist/antagonist profile (3H-flunitrazepam displacement, rat brain membranes)
Procedure: The benzodiazepine receptor binding properties indicative of the nervous system regulatory activity of said new compounds are determined in the receptor binding assay in vitro, e.g. similarly to that in Nature 266, 732 (1977) or Proc. Nat. Acad. Sci. USA 74, 3805 (1977). When tritiated flunitrazepam is used, the interaction of other drugs with said receptor can be readily assessed thus: Synaptosnal membranes from rat fore-brain are incubated at 0°-5° for 30 minutes with 0.5 nM tritiated flunitrazepam and various concentrations of the test substance in a buffer medium maintained at pH 7.5. […] The membranes, containing the receptors with various amounts of tritiated flunitrazepam, are filtered onto glass fiber filters, which are then analyzed in a liquid scintillation counter. […]
The pharmacological agonist and/or antagonist/inverse agonist profile of the benzodiazepine receptor modulators of the invention can also be determined by measuring their effect in a rat brain membrane preparation on the displacement of ^3 H-flunitrazepam in the presence or absence of gamma-aminobutric acid (GABA), on the enhancement of ^3 H-muscimol binding by etazolate, or on the binding of ^35 S-butyl bicyclophosphorothionate (TBPS), e.g. as described in J. Pharmacol. Exp. Ther. 231, 572 (1984).

male Wistar rats = assay: Cook-Davidson conflict procedure (anxiolytic effects); type: in vivo, rat; conditions: e.g. as determined in the Cook-Davidson model
Source text: Anxiolytic effects are observed, for example, by measuring the antagonism of pentylenetetrazol discriminative stimuli in the rat and according to the Cook-Davidson conflict procedure, using male Wistar rats, e.g. as described in Drug Development Research 6: 313-325 (1985).

rat = assay: discrimination test in the rat; type: in vivo; conditions: test compounds administered orally
Source text: Illustrative thereof is the compound of example 1.
The diazepam discrimination test, can also be used to determine benzodiazepine antagonist properties.

SMILES	pharmacological profile at the benzodiazepine receptor (benzodiazepine receptor)	anxiolytic properties (male Wistar rats)	generalization to the discrimination test (rat)
COc1ccc(-n2nc3c4c([nH]cc-3c2=O)CCCCCC4)cc1 [Example 1, 2-(4-methoxyphenyl)-2,3,6,7,8,9,10,11-octahydrocycloocta[b]pyrazolo[3,4-d]pyridin-3(5H)-one]	benzodiazepine agonist profile	demonstrate anxiolytic properties	do not generalize to the discrimination test
O=c1c2c[nH]c3c(c-2nn1-c1ccc(Cl)cc1)CCCCCC3 [Example 2b, 2-(4-chlorophenyl)-2,3,6,7,8,9,10,11-octahydrocycloocta[b]pyrazolo[3,4-d]-pyridin-3(5H)-one]	benzodiazepine agonist profile		
